From the supplement of paper PMC10307832

Legend:
Assay in all cases: relative viability (nuclei count vs DMSO), 5 days (fraction); higher = more cells survive
[1] = compound: C#Cc1cccc(Nc2ncnc3cc(OCCOC)c(OCCOC)cc23)c1 [Erlotinib] + O=C(CCCCCCC(=O)Nc1ccccc1)NO [Vorinostat] (partner 1 µM)
Summary of the method: (§1)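 Dosing by pin tool came one day after lung cancer cell lines were seeded in 1536-well plates, using either one drug or a fixed anchor-drug dose plus five library-drug doses (not always all listed) in √10 steps. After 5 days, nuclei were counted on 4× images. Relative viability is treated-well nuclei count divided by vehicle-well nuclei count, and values are medians of duplicate plates.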

[2] = compound: C#Cc1cccc(Nc2ncnc3cc(OCCOC)c(OCCOC)cc23)c1 [Erlotinib] + CC(C)C[C@H](NC(=O)[C@H](Cc1ccccc1)NC(=O)c1cnccn1)B(O)O [Bortezomib] (partner 0.002 µM)
Summary of the method: as §1

[3] = compound: O=C(Nc1c[nH]nc1-c1nc2ccc(CN3CCOCC3)cc2[nH]1)NC1CC1 [AT9283] + Nc1ncn([C@H]2C[C@H](O)[C@@H](CO)O2)c(=O)n1 [Decitabine] (partner 2 µM)
Summary of the method: as §1

[4] = compound: C#Cc1cccc(Nc2ncnc3cc(OCCOC)c(OCCOC)cc23)c1 [Erlotinib] + O=C(c1cc(Cc2n[nH]c(=O)c3ccccc23)ccc1F)N1CCN(C(=O)C2CC2)CC1 [Olaparib] (partner 8 µM)
Summary of the method: as §1

[5] = compound: O=C(Nc1c[nH]nc1-c1nc2ccc(CN3CCOCC3)cc2[nH]1)NC1CC1 [AT9283] + COc1cccc2cc(-c3nc([C@H]4CC[C@H](C(=O)O)CC4)n4ncnc(N)c34)[nH]c12 [OSI-027] (partner 0.5 µM)
Summary of the method: as §1

Cell Line | relative viability ([1]; first compound 0.02 µM) | relative viability ([1]; first compound 0.2 µM) | relative viability ([1]; first compound 0.6325 µM) | relative viability ([1]; first compound 2 µM) | relative viability ([2]; first compound 0.02 µM) | relative viability ([2]; first compound 0.2 µM) | relative viability ([2]; first compound 0.6325 µM) | relative viability ([2]; first compound 2 µM) | relative viability ([3]; first compound 0.003 µM) | relative viability ([3]; first compound 0.03 µM) | relative viability ([3]; first compound 0.09487 µM) | relative viability ([3]; first compound 0.3 µM) | relative viability ([4]; first compound 0.02 µM) | relative viability ([4]; first compound 0.2 µM) | relative viability ([4]; first compound 0.6325 µM) | relative viability ([4]; first compound 2 µM) | relative viability ([5]; first compound 0.003 µM) | relative viability ([5]; first compound 0.03 µM) | relative viability ([5]; first compound 0.09487 µM) | relative viability ([5]; first compound 0.3 µM)
HOP-62 | 0.714 | 0.492 | 0.759 | 0.716 | 1.08 | 0.5 | 0.316 | 1.02 | 0.212 | 0.217 | 0.152 | 0.165 | 0.446 | 0.307 | 0.508 | 0.415 | 0.868 | 0.792 | 0.53 | 0.253
NCI-H520 | 0.718 | 0.693 | 0.83 | 0.71 | 0.75 | 0.261 | 0.722 | 0.455 | 0.381 | 0.297 | 0.272 | 0.171 | 0.413 | 0.343 | 0.37 | 0.335 | 0.256 | 0.198 | 0.185 | 0.172
NCI-H2126 | 0.688 | 0.529 | 0.438 | 0.416 | 1.12 | 1.11 | 0.964 | 0.769 | 0.589 | 0.625 | 0.439 | 0.303 | 0.872 | 0.851 | 0.729 | 0.718 | 0.635 | 0.808 | 0.75 | 0.389
NCI-H2087 | 0.778 | 0.788 | 0.765 | 0.434 | 1 | 1.12 | 0.804 | 0.768 | 0.238 | 0.214 | 0.182 | 0.0988 | 0.622 | 0.576 | 0.576 | 0.469 | 0.637 | 0.392 | 0.14 | 0.134
NCI-H1355 | 0.668 | 0.633 | 0.602 | 0.521 | 1.14 | 1.1 | 1.24 | 0.992 | 0.341 | 0.357 | 0.322 | 0.195 | 0.796 | 0.709 | 0.684 | 0.558 | 0.399 | 0.436 | 0.276 | 0.221
A-427 | 0.844 | 0.834 | 0.932 | 0.892 | 1.01 | 1.04 | 1.1 | 0.951 | 0.6 | 0.494 | 0.239 | 0.248 | 0.792 | 0.757 | 0.713 | 0.716 | 0.421 | 0.326 | 0.159 | 0.176
NCI-H460 | 0.832 | 0.734 | 0.969 | 0.601 | 1.09 | 1.12 | 1.52 | 1.09 | 0.434 | 0.466 | 0.24 | 0.078 | 0.453 | 0.345 | 0.425 | 0.363 | 0.678 | 0.81 | 0.248 | 0.0423
NCI-H2405 | 1.27 | 1.1 | 1.1 | 0.917 | 1.12 | 1.03 | 0.998 | 0.938 | 0.732 | 0.725 | 0.381 | 0.24 | 0.965 | 0.849 | 0.888 | 0.81 | 0.685 | 0.654 | 0.533 | 0.262
